Laboratory results published in patent publication US9206173B2, “Heterocyclic compounds for the treatment of stress-related conditions” (OTSUKA PHARMACEUTICAL CO., LTD., priority 2009, dated 2015).
Counter-ions that a name gives are not always drawn.

Biological target: human GPR10 (Homo sapiens (Human), UniProt P49683)
Assay: Inhibitory activity on binding of [3H]-PrRP to GPR10 (HEK 293 cell membrane fraction)
Conditions: [3H]-PrRP 1 nM, human GPR10-expressing HEK 293 cell membrane fraction; Ki from IC50 by Cheng-Prussoff formula
Experimental: Inhibitory Activity on Binding of [^3H]-PrRP to GPR10
Human GPR10 receptor expressing human embryonic kidney cells, HEK 293 cells, were cultured in Dulbecco's Modified Eagle's medium supplemented with 10% fetal bovine serum and 1% penicilline-streptmycin at 37° C., in 5% carbon dioxide gas conditions. The medium was removed and the cells were recovered in a phosphate buffer to prepare a cell suspension. The cell suspension was homogenated on ice by an ultrasonic cell homogenizer (Microson™ type XL200) and centrifuged at 40,000 g for 10 minutes at 4° C. After the supernatant was discarded, Buffer A (20 mM HEPES, 10 mM EDTA, 1 μl/ml protease inhibiting cocktail, pH 7.4) was added to the pellet. The pellet was suspended by the ultrasonic cell homogenizer, then the suspension was centrifuged at 40,000 g, for 10 minutes at 4° C. After this operation was repeated once again, the supernatant was discarded, Buffer B (20 mM HEPES, 0.1 mM EDTA, pH 7.4) was added to the pellet, and the pellet was suspended by the ultrasonic homogenizer. This was stored at a freezer of −80° C. as a cell membrane fraction until use in a binding test.
To each well of a 96-well plate, 150 μl of assay buffer (20 mM HEPES, 10 mM EDTA, 1 μl/ml protease inhibiting agent cocktail, pH 7.4), 20 μl of cell membrane fraction, 10 μl of test compound and [^3H]-PrRP (final concentration 1 nM) were added and incubated at room temperature for 90 minutes. After completion of the reaction, using a cell harvester, the cell-membrane fraction sample product was filtered under aspiration by a glass fiber filter plate (Unifilter; GF/B) previously treated with 0.5% polyethylene imine. The filter was washed with a 50 mM Tris hydrochloric acid buffer (pH 7.4) three times. After the filter was dried in a dryer (50° C.) for about 3 hours, 40 μl of liquid scintillation cocktail (MicroScint-O) was added to each well and radio activity was measured by a scintillation counter (Packard Topcount). The radio activity in the presence of an excessive amount of non-labeled PrRP (final concentration: 100 nM) was regarded as non-specific binding.
The binding inhibition rate was calculated based on calculating formula: 100−(radio activity when a compound is added−radio activity of non-specific binding)÷(radio activity when a solvent is added−radio activity of non-specific binding)×100.
An IC50 value was calculated based on the concentration dependent reaction using a non-linear analysis program and a Ki value was calculated using Cheng-Prussoff formula.

human GPR10, sequence (P49683 whole entry): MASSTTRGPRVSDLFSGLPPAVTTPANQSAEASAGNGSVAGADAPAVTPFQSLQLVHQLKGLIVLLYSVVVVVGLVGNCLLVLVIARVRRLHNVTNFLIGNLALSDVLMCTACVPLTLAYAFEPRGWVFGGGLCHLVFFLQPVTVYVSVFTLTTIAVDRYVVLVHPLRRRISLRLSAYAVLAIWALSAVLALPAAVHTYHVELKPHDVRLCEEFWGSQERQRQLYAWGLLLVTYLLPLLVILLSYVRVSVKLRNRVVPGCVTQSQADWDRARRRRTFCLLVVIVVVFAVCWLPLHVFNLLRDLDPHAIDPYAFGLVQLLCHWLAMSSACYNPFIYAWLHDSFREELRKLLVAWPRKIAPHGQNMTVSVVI

Ki | SMILES
9 nM | COn1c(N[C@@H](C)c2ccc(C(F)(F)F)cc2)nc2c(c1=O)CN(C(=O)c1cc3cccnc3s1)CC2 [Example 2415, 3-methoxy-6-(thieno[2,3-b]pyridine-2-carbonyl)-2-[(S)-1-(4-trifluoromethylphenyl)ethylamino]-5,6,7,8-tetrahydro-3H-pyrido[4,3-d]pyrimidin-4-one]
9 nM | C#CCCn1c(N[C@@H](C)c2ccc(C(F)(F)F)cc2)nc2c(c1=O)CN(C(=O)c1ccc(-n3ccnc3)cc1)CC2 [Example 2434, 3-(3-butynyl)-6-(4-imidazol-1-ylbenzoyl)-2-[(S)-1-(4-trifluoromethylphenyl)ethylamino]-5,6,7,8-tetrahydro-3H-pyrido[4,3-d]pyrimidin-4-one]
26 nM | C#CCCn1c(N[C@@H](C)c2ccc(C(F)(F)F)cc2)nc2c(c1=O)CN(C(=O)c1ccc(-c3cnco3)cc1)CC2 [Example 2438, 3-(3-butynyl)-6-(4-oxazol-5-ylbenzoyl)-2-[(S)-1-(4-trifluoromethylphenyl)ethylamino]-5,6,7,8-tetrahydro-3H-pyrido[4,3-d]pyrimidin-4-one]
140 nM | C[C@H](Nc1nc2c(c(=O)n1N(C)C)CN(C(=O)COc1ccc(Cl)cc1)CC2)c1ccc(C(F)(F)F)cc1 [Example 2442, 6-[2-(4-chlorophenoxy)acetyl]-3-dimethylamino-2-[(S)-1-(4-trifluoromethylphenyl)ethylamino]-5,6,7,8-tetrahydro-3H-pyrido[4,3-d]pyrimidin-4-one hydrochloride]
41 nM | C#CCCn1c(N[C@@H](C)c2ccc(C(F)(F)F)cc2)nc2c(c1=O)CN(C(=O)c1ccc(C)cc1)CC2 [Example 2443, 3-(3-butynyl)-6-(4-methylbenzoyl)-2-[(S)-1-(4-trifluoromethylphenyl)ethylamino]-5,6,7,8-tetrahydro-3H-pyrido[4,3-d]pyrimidin-4-one]
42 nM | CC#CCn1c(N[C@@H](C)c2ccc(C(F)(F)F)cc2)nc2c(c1=O)CN(C(=O)c1ccc3c(c1)OCO3)CC2 [Example 2444, 6-(benzo[1,3]dioxole-5-carbonyl)-3-(2-butynyl)-2-[(S)-1-(4-trifluoromethylphenyl)ethylamino]-5,6,7,8-tetrahydro-3H-pyrido[4,3-d]pyrimidin-4-one]
41 nM | CC#CCn1c(N[C@@H](C)c2ccc(C(F)(F)F)cc2)nc2c(c1=O)CN(C(=O)c1ccc(C)c(C)c1)CC2 [Example 2447, 3-(2-butynyl)-6-(3,4-dimethylbenzoyl)-2-[(S)-1-(4-trifluoromethylphenyl)ethylamino]-5,6,7,8-tetrahydro-3H-pyrido[4,3-d]pyrimidin-4-one]
23 nM | CC#CCn1c(N[C@@H](C)c2ccc(C(F)(F)F)cc2)nc2c(c1=O)CN(C(=O)c1ccc(OC)cc1)CC2 [Example 2448, 3-(2-butynyl)-6-(4-methoxybenzoyl)-2-[(S)-1-(4-trifluoromethylphenyl)ethylamino]-5,6,7,8-tetrahydro-3H-pyrido[4,3-d]pyrimidin-4-one]
121 nM | COn1c(NC(CCC(F)(F)F)c2ccc(Cl)cc2)nc2c(c1=O)CN(C(=O)c1ccc(Cl)cc1)CC2 (centres unmarked) [Example 2450, 6-(4-chlorobenzoyl)-2-[1-(4-chlorophenyl)-4,4,4-trifluorobutylamino]-3-methoxy-5,6,7,8-tetrahydro-3H-pyrido[4,3-d]pyrimidin-4-one]
48 nM | COn1c(N[C@@H](C)c2ccc(C(F)(F)F)cc2)nc2c(c1=O)CN(C(=O)c1ccc(Cl)o1)CC2 [Example 2454, 6-(5-chloro-furan-2-carbonyl)-3-methoxy-2-[(S)-1-(4-trifluoromethylphenyl)ethylamino]-5,6,7,8-tetrahydro-3H-pyrido[4,3-d]pyrimidin-4-one]
6 nM | C=Cc1ccc(C(=O)N2CCc3nc(N[C@@H](C)c4ccc(C(F)(F)F)cc4)n(OC)c(=O)c3C2)cc1 [Example 2456, 3-methoxy-2-[(S)-1-(4-trifluoromethylphenyl)ethylamino]-6-(4-vinylbenzoyl)-5,6,7,8-tetrahydro-3H-pyrido[4,3-d]pyrimidin-4-one]
8 nM | COn1c(N[C@@H](C)c2ccc(C(F)(F)F)cc2)nc2c(c1=O)CN(C(=O)c1ccc(C)c(F)c1)CC2 [Example 2457, 6-(3-fluoro-4-methylbenzoyl)-3-methoxy-2-[(S)-1-(4-trifluoromethylphenyl)ethylamino]-5,6,7,8-tetrahydro-3H-pyrido[4,3-d]pyrimidin-4-one]
245 nM | C#CCCn1c(N[C@@H](C)c2ccc(C(F)(F)F)cc2)nc2c(c1=O)CN(C(=O)c1nc3ccccc3[nH]1)CC2 [Example 2458, 6-(1H-benzoimidazole-2-carbonyl)-3-(3-butynyl)-2-[(S)-1-(4-trifluoromethylphenyl)ethylamino]-5,6,7,8-tetrahydro-3H-pyrido[4,3-d]pyrimidin-4-one]
10 nM | COn1c(N[C@@H](C)c2ccc(C(F)(F)F)cc2)nc2c(c1=O)CN(C(=O)c1ccc3c(c1)OCCO3)CC2 [Example 2459, 6-(2,3-dihydrobenzo[1,4]dioxine-6-carbonyl)-3-methoxy-2-[(S)-1-(4-trifluoromethylphenyl)ethylamino]-5,6,7,8-tetrahydro-3H-pyrido[4,3-d]pyrimidin-4-one]
14 nM | COc1ccc2oc(C(=O)N3CCc4nc(N[C@@H](C)c5ccc(C(F)(F)F)cc5)n(OC)c(=O)c4C3)cc2c1 [Example 2460, 3-methoxy-6-(5-methoxybenzofuran-2-carbonyl)-2-[(S)-1-(4-trifluoromethylphenyl)ethylamino]-5,6,7,8-tetrahydro-3H-pyrido[4,3-d]pyrimidin-4-one]
98 nM | COn1c(NCc2ccc(Cl)cc2)nc2c(c1=O)CN(C(=O)c1ccc(Cl)cc1)CC2 [Example 2462, 6-(4-chlorobenzoyl)-2-(4-chlorobenzylamino)-3-methoxy-5,6,7,8-tetrahydro-3H-pyrido[4,3-d]pyrimidin-4-one hydrochloride]
20 nM | COn1c(N[C@@H](C)c2ccc(C(F)(F)F)cc2)nc2c(c1=O)CN(C(=O)c1cc(-c3cccs3)n(C)n1)CC2 [Example 2464, 3-methoxy-6-(1-methyl-5-thiophen-2-yl-1H-pyrazole-3-carbonyl)-2-[(S)-1-(4-trifluoromethylphenyl)ethylamino]-5,6,7,8-tetrahydro-3H-pyrido[4,3-d]pyrimidin-4-one]
10 nM | COn1c(N[C@@H](C)c2ccc(C(F)(F)F)cc2)nc2c(c1=O)CN(C(=O)c1cc3occc3n1C)CC2 [Example 2465, 3-methoxy-6-(4-methyl-4H-furo[3,2-b]pyrrole-5-carbonyl)-2-[(S)-1-(4-trifluoromethylphenyl)ethylamino]-5,6,7,8-tetrahydro-3H-pyrido[4,3-d]pyrimidin-4-one]
6 nM | COn1c(N[C@@H](C)c2ccc(C(F)(F)F)cc2)nc2c(c1=O)CN(C(=O)COc1ccc(C#N)cc1)CC2 [Example 2468, 4-(2-{3-methoxy-4-oxo-2-[(S)-1-(4-trifluoromethylphenyl)ethylamino]-3,5,7,8-tetrahydro-4H-pyrido[4,3-d]pyrimidin-6-yl}-2-oxo-ethoxy)benzonitrile]
56 nM | COn1c(N[C@@H](C)C2CCCCC2)nc2c(c1=O)CN(C(=O)c1ccc(C#N)cc1F)CC2 [Example 2469, 4-[2-((S)-1-cyclohexylethylamino)-3-methoxy-4-oxo-3,5,7,8-tetrahydro-4H-pyrido[4,3-d]pyrimidine-6-carbonyl]-3-fluorobenzonitrile]
108 nM | COn1c(N[C@@H](C)C2CCCCC2)nc2c(c1=O)CN(C(=O)c1ccc(Cl)cc1)CC2 [Example 2470, 6-(4-chlorobenzoyl)-2-((S)-1-cyclohexyl-ethylamino)-3-methoxy-5,6,7,8-tetrahydro-3H-pyrido[4,3-d]pyrimidin-4-one]
15 nM | COn1c(N[C@@H](C)c2ccc(C(F)(F)F)cc2)nc2c(c1=O)CN(C(=O)c1cc3ccccc3s1)CC2 [Example 2474, 6-(benzo[b]thiophene-2-carbonyl)-3-methoxy-2-[(S)-1-(4-trifluoromethylphenyl)ethylamino]-5,6,7,8-tetrahydro-3H-pyrido[4,3-d]pyrimidin-4-one]

SMILES | Ki
CC(C)COn1c(N[C@@H](C)c2ccc(C(F)(F)F)cc2)nc2c(c1=O)CN(C(=O)c1ccc(C#N)cc1F)CC2 [Example 2416, 3-fluoro-4-{3-isobutoxy-4-oxo-2-[(S)-1-(4-trifluoromethylphenyl)ethylamino]-3,5,7,8-tetrahydro-4H-pyrido[4,3-d]pyrimidine-6-carbonyl}benzonitrile] | 33 nM
